The values that follow come from patent US20260015350A1, “AZAQUINAZOLINE PAN-KRAS INHIBITORS” (Mirati Therapeutics, Inc., priority 2022, published 2026).

Each structure is given as a SMILES string.

The subject of assay [1] is KRas-mediated phosphorylation of ERK in HCT116 cells. As to the kind of experiment: Inhibition of KRas-mediated phosphorylation of ERK (Cisbio HTRF pERK), HCT116 cells. In kind it is cell-based. To be noted: Homo sapiens, HCT-116, 3 h, single point, 100 nM compound, 3 hrs. The gist of the method: (§1)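 A cell-based HTRF pERK assay: ten-point, threefold titrations beginning at 10 uM were applied for 3 hrs, with 0.2 uM Trametinib wells as the minimum control. Cells were lysed cold, and lysate was incubated with the antibody pair for 2 hrs before reading.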

In another assay the target is T1, KRas^G12C (Homo sapiens, UniProt P01116, G12C).
T1 construct: Biotinylated KRas (corresponding to amino acids 1-169, produced at Accelegan Inc.); biotin (biotinylated); purchased Accelegan Inc
T1 sequence (P01116 1-169 isoform P01116-2 G12C): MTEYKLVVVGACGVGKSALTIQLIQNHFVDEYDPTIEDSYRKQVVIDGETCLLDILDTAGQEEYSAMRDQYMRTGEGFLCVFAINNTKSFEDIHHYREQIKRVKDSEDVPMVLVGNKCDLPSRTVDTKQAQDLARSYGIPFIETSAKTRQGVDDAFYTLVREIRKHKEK
As to the kind of experiment: KRas binding assay (TR-FRET tracer displacement), KRas G12C. The conditions noted are these: for inhibition at 0.01 µM: single point, 10 nM compound, TR-FRET; for IC50: TR-FRET tracer displacement, KRas G12C.

The target of a further assay is T2, KRas^G13D (Homo sapiens, UniProt P01116, G13D).
T2 construct: Biotinylated KRas (corresponding to amino acids 1-169, produced at Accelegan Inc.); biotin (biotinylated); purchased Accelegan Inc
T2 sequence (P01116 1-169 isoform P01116-2 G13D): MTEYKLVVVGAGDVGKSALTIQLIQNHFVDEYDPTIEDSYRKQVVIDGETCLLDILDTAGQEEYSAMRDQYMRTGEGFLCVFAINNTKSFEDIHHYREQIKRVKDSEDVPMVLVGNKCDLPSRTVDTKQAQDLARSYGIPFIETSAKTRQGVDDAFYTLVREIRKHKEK
The assay is described as follows: KRas binding assay (TR-FRET tracer displacement), KRas G13D. To be noted: for inhibition at 0.01 µM: single point, 10 nM compound, TR-FRET; for IC50: TR-FRET tracer displacement, KRas G13D.

The next assay has as its target T3, KRas^G12R (Homo sapiens, UniProt P01116, G12R).
T3 construct: Biotinylated KRas (corresponding to amino acids 1-169, produced at Accelegan Inc.); biotin (biotinylated); purchased Accelegan Inc
The assay is described as follows: KRas binding assay (TR-FRET tracer displacement), KRas G12R.

Assay [2] concerns KRas-mediated phosphorylation of ERK in H727 cells. The assay is described as follows: Inhibition of KRas-mediated phosphorylation of ERK (Cisbio HTRF pERK), H727 cells. Type of assay: cell-based. The conditions noted are these: Homo sapiens; for IC50: NCI-H727, H727 cells, HTRF pERK. The gist of the method:
(§2)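 HTRF readout of phospho-ERK in cell lysates after 3 hrs of compound exposure. Dosing: 10 uM top, 3-fold steps, 10 doses, final DMSO 0.8%. Min control: 0.2 uM Trametinib. Lysis ran 40 mins at 4° C, and antibody detection 2 hrs at room temperature.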

For the next assay, the target named is T4, KRas^G12V (Homo sapiens, UniProt P01116, G12V).
T4 construct: Biotinylated KRas (corresponding to amino acids 1-169, produced at Accelegan Inc.); biotin (biotinylated); purchased Accelegan Inc
T4 sequence (P01116 1-169 isoform P01116-2 G12V): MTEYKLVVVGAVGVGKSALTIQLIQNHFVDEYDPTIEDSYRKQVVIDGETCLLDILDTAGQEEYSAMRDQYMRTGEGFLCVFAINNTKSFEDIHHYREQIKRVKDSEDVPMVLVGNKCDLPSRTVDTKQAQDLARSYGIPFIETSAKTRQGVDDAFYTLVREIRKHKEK
As to the kind of experiment: KRas binding assay (TR-FRET tracer displacement), KRas G12V.

In the next assay the target is T5, KRas^Q61H (Homo sapiens, UniProt P01116, Q61H).
T5 construct: Biotinylated KRas (corresponding to amino acids 1-169, produced at Accelegan Inc.); biotin (biotinylated); purchased Accelegan Inc
T5 sequence (P01116 1-169 isoform P01116-2 Q61H): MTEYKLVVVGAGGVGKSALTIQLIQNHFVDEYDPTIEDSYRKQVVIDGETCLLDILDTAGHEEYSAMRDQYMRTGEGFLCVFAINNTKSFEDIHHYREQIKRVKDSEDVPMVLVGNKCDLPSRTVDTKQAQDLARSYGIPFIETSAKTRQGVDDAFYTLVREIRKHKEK
As to the kind of experiment: KRas binding assay (TR-FRET tracer displacement), KRas Q61H. To be noted: for inhibition at 0.01 µM: single point, 10 nM compound, TR-FRET; for IC50: TR-FRET tracer displacement, KRas Q61H.

The target in a further assay is T6, KRas^G12D (Homo sapiens, UniProt P01116, G12D).
T6 construct: Biotinylated KRas (corresponding to amino acids 1-169, produced at Accelegan Inc.); biotin (biotinylated); purchased Accelegan Inc
T6 sequence (P01116 1-169 isoform P01116-2 G12D): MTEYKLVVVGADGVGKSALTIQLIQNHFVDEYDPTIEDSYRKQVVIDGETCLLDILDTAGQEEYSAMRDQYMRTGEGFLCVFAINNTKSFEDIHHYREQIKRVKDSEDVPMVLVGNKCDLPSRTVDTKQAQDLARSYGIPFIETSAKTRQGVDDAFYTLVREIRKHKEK
As to the kind of experiment: KRas binding assay (TR-FRET tracer displacement), KRas G12D.

In assay [3] the test system is KRas-mediated phosphorylation of ERK in H460 cells. As to the kind of experiment: Inhibition of KRas-mediated phosphorylation of ERK (Cisbio HTRF pERK), H460 cells. In kind it is cell-based. The conditions noted are these: Homo sapiens, NCI-H460, 3 h, single point, 100 nM compound, 3 hrs. The gist of the method:
as §2

The target of another assay is T7, KRas^WT (Homo sapiens, UniProt P01116).
T7 construct: Biotinylated KRas (corresponding to amino acids 1-169, produced at Accelegan Inc.); biotin (biotinylated); purchased Accelegan Inc
T7 sequence (P01116 1-169 isoform P01116-2): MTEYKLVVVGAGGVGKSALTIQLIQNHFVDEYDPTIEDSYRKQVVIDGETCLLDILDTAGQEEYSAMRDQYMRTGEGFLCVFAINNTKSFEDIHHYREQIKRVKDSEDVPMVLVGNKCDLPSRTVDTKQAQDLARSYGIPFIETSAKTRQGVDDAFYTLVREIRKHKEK
The assay is described as follows: KRas binding assay (TR-FRET tracer displacement), KRas WT. To be noted: for inhibition at 0.01 µM: single point, 10 nM compound, TR-FRET; for IC50: TR-FRET tracer displacement, KRas WT.

The target in another assay is T8, KRas^G12S (Homo sapiens, UniProt P01116, G12S).
T8 construct: Biotinylated KRas (corresponding to amino acids 1-169, produced at Accelegan Inc.); biotin (biotinylated); purchased Accelegan Inc
T8 sequence (P01116 1-169 isoform P01116-2 G12S): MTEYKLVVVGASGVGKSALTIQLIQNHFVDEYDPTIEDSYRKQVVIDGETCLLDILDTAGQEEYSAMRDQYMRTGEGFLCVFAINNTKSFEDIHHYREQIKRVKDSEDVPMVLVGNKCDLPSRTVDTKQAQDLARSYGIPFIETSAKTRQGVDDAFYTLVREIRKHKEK
The assay is described as follows: KRas binding assay (TR-FRET tracer displacement), KRas G12S. The conditions noted are these: for inhibition at 0.01 µM: single point, 10 nM compound, TR-FRET; for IC50: TR-FRET tracer displacement, KRas G12S.

Assay [4] has as its system KRas-mediated phosphorylation of ERK in AsPC-1 cells. The assay is described as follows: Inhibition of KRas-mediated phosphorylation of ERK (Cisbio HTRF pERK), AsPC-1 cells. In kind it is cell-based. The conditions noted are these: Homo sapiens; for IC50: ASPC1, AsPC-1 cells, HTRF pERK. The gist of the method: as §2
The test system of assay [5] is KRas-mediated phosphorylation of ERK in A549 cells. The assay is described as follows: Inhibition of KRas-mediated phosphorylation of ERK (Cisbio HTRF pERK), A549 cells. In kind it is cell-based. The conditions noted are these: Homo sapiens, A549, 3 h, single point, 100 nM compound, 3 hrs. The gist of the method: as §1
For assay [6], the system named is KRas-mediated phosphorylation of ERK in H358 cells. The assay is described as follows: Inhibition of KRas-mediated phosphorylation of ERK (Cisbio HTRF pERK), H358 cells. In kind it is cell-based. To be noted: Homo sapiens, NCI-H358, 3 h, single point, 100 nM compound, 3 hrs. A digest of the protocol:
as §2

The next assay addresses T9, KRas^G12A (Homo sapiens, UniProt P01116, G12A).
T9 construct: Biotinylated KRas (corresponding to amino acids 1-169, produced at Accelegan Inc.); biotin (biotinylated); purchased Accelegan Inc
The assay is described as follows: KRas binding assay (TR-FRET tracer displacement), KRas G12A. To be noted: for inhibition at 0.01 µM: single point, 10 nM compound, TR-FRET; for IC50: TR-FRET tracer displacement, KRas G12A.

T3 sequence (P01116 1-169 isoform P01116-2 G12R): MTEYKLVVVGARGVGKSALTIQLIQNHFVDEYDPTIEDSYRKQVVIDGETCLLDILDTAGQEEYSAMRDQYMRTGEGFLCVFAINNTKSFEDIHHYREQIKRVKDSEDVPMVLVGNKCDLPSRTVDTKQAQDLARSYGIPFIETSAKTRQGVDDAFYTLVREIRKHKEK
T9 sequence (P01116 1-169 isoform P01116-2 G12A): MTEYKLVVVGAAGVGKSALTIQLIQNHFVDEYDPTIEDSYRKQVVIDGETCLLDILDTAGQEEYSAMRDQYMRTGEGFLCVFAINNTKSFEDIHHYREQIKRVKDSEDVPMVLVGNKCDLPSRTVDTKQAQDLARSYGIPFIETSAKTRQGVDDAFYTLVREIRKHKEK

Consider `C#Cc1c(F)ccc2cc(O)cc(-c3ncc4c(N5CCC[C@@](C)(O)C5)nc(OCC5(CN6CCCC6)CC5)nc4c3F)c12` [Example 752, (R)-1-(7-(8-ethynyl-7-fluoro-3-hydroxynaphthalen-1-yl)-8-fluoro-2-((1-(pyrrolidin-1-ylmethyl)cyclopropyl)methoxy)pyrido[4,3-d]pyrimidin-4-yl)-3-methylpiperidin-3-ol], for which the inhibition at 0.1 µM was found to be 32% in [1]; 31% in assay [2] (NCI-H727, 3 h, single point, 100 nM compound, 3 hrs, H727 cells); 44% in assay [3]; 27% in assay [4] (ASPC1, 3 h, single point, 100 nM compound, 3 hrs, AsPC-1 cells); 31% in assay [5]; 76% in assay [6]. Further, the inhibition at 0.01 µM on KRas^G12C came to 99%; at KRas^G13D, 98%; at KRas^Q61H it was 99%; on KRas^WT, 97%; at KRas^G12S it was 97%; on KRas^G12A it was 96%. Also, the IC50 at KRas^G12R is less than 2 nM; in assay [2] it was 53 nM; at KRas^G12V it was less than 2 nM; on KRas^G12D it was less than 2 nM; in [4] it was 55 nM.
On to `O=S1(=O)NCC2(CCCN(c3nc(OCC45CCCN4CCC5)nc4c(F)c(-c5c6ccccc6cc6[nH]ncc56)ncc34)C2)N1` (centres unmarked) [Example 758, 7-(7-(1H-benzo[f]indazol-4-yl)-8-fluoro-2-((hexahydro-1H-pyrrolizin-7a-yl)methoxy)pyrido[4,3-d]pyrimidin-4-yl)-2-thia-1,3,7-triazaspiro[4.5]decane 2,2-dioxide], for which the inhibition at 0.1 µM was determined as 20% in [1], 9% in [3], 11% in [5] and 23% in assay [6]. Further, the half-inhibitory concentration (IC50) was less than 2 nM on KRas^G12C; less than 2 nM at KRas^G13D; less than 2 nM on KRas^G12R; 1780 nM in [2]; less than 2 nM at KRas^G12V; less than 2 nM at KRas^Q61H. Further, the IC50 at KRas^G12D was 5 nM; on KRas^WT it was less than 2 nM; at KRas^G12S, less than 2 nM; in assay [4], 1270 nM; at KRas^G12A, less than 2 nM.
For `Cc1cccc2c(-c3ncc4c(N5C[C@@H]6C[C@H](C5)[C@H](O)C6)nc(OC[C@@]56CCCN5C[C@H](F)C6)nc4c3F)cc(O)cc12` [Example 747, (1R,5R,6R)-3-(8-fluoro-2-(((2R,7aS)-2-fluorohexahydro-1H-pyrrolizin-7a-yl)methoxy)-7-(3-hydroxy-5-methylnaphthalen-1-yl)pyrido[4,3-d]pyrimidin-4-yl)-3-azabicyclo[3.2.1]octan-6-ol], the inhibition at 0.1 µM in [1] is 5%; in [3], -6%; in [5], 4%; in [6], -6%. For the same molecule, the IC50 at KRas^G12C was determined as 107 nM; on KRas^G13D it was 94 nM; at KRas^G12R it was 76 nM; in assay [2], 1260 nM; on KRas^G12V, 67 nM; on KRas^Q61H, 180 nM. For the same molecule, the IC50 is 272 nM at KRas^G12D; 107 nM at KRas^WT; 61 nM at KRas^G12S; 3850 nM in assay [4]; 36 nM at KRas^G12A.
Turning to `Cc1ccc2c(-c3ncc4c(N5C[C@@H]6C[C@H](C5)[C@H](O)C6)nc(OC[C@@]56CCCN5C[C@H](F)C6)nc4c3F)cc(O)cc2c1` [Example 746, (1R,5R,6R)-3-(8-fluoro-2-(((2R,7aS)-2-fluorotetrahydro-1H-pyrrolizin-7a(5H)-yl)methoxy)-7-(3-hydroxy-6-methylnaphthalen-1-yl)pyrido[4,3-d]pyrimidin-4-yl)-3-azabicyclo[3.2.1]octan-6-ol], the inhibition at 0.1 µM was 10% in assay [1], 2% in assay [3], -19% in assay [5] and -17% in [6]. For the same molecule, the IC50 on KRas^G12C is 106 nM; at KRas^G13D it was 107 nM; on KRas^G12R, 68 nM; in assay [2], 1340 nM; on KRas^G12V it was 59 nM; on KRas^Q61H, 166 nM. Further, the IC50 came out at 226 nM at KRas^G12D; 117 nM at KRas^WT; 64 nM on KRas^G12S; 2260 nM in assay [4]; 82 nM at KRas^G12A.
Regarding `CCc1cccc2cc3[nH]ncc3c(-c3ncc4c(N5CCCC6(CNS(=O)(=O)N6)C5)nc(OC[C@@]56CCCN5C[C@H](F)C6)nc4c3F)c12` (stereo partly drawn) [Example 772, 7-(7-(5-ethyl-1H-benzo[f]indazol-4-yl)-8-fluoro-2-(((2R,7aS)-2-fluorohexahydro-1H-pyrrolizin-7a-yl)methoxy)pyrido[4,3-d]pyrimidin-4-yl)-2-thia-1,3,7-triazaspiro[4.5]decane 2,2-dioxide], the inhibition at 0.1 µM in assay [1] is 3%; in assay [3], 19%; in [5], 22%; in assay [6], -4%. Also, the IC50 was 7 nM at KRas^G12C; 4 nM at KRas^G13D; 12 nM on KRas^G12R; 2670 nM in assay [2]; 5 nM at KRas^G12V; 3 nM on KRas^Q61H. Also, the half-inhibitory concentration (IC50) on KRas^G12D turned out to be 7 nM; at KRas^WT, 4 nM; at KRas^G12S, 5 nM; in [4] it was 2230 nM; at KRas^G12A it was 5 nM.
In the case of `CN(C)C(=O)OC[C@@H]1CC[C@@]2(COc3nc(N4CCC[C@@](C)(O)C4)c4cnc(-c5cc(O)cc6ccc(F)c(F)c56)c(F)c4n3)CCCN12` [Example 548, ((3S,7aR)-7a-(((7-(7,8-difluoro-3-hydroxynaphthalen-1-yl)-8-fluoro-4-((R)-3-hydroxy-3-methylpiperidin-1-yl)pyrido[4,3-d]pyrimidin-2-yl)oxy)methyl)hexahydro-1H-pyrrolizin-3-yl)methyl dimethylcarbamate], the inhibition at 0.1 µM in assay [1] is 29%; in assay [3], 38%; in assay [5] it was 38%; in [6], 59%. Also, the inhibition at 0.01 µM on KRas^G12C was found to be 84%; at KRas^G13D it was 86%; at KRas^Q61H, 79%; at KRas^WT, 79%; on KRas^G12S, 79%; at KRas^G12A, 79%. The IC50 is 5 nM at KRas^G12R; 88 nM in assay [2]; 3 nM at KRas^G12V; 2 nM at KRas^G12D; 55 nM in assay [4].
Consider `Oc1cc(-c2ncc3c(N4C[C@@H]5C[C@H](C4)[C@H](O)C5)nc(OC[C@@]45CCCN4C[C@H](F)C5)nc3c2F)c2ccc(F)cc2c1` [Example 749, (1R,5R,6R)-3-(8-fluoro-7-(6-fluoro-3-hydroxynaphthalen-1-yl)-2-(((2R,7aS)-2-fluorohexahydro-1H-pyrrolizin-7a-yl)methoxy)pyrido[4,3-d]pyrimidin-4-yl)-3-azabicyclo[3.2.1]octan-6-ol], for which the inhibition at 0.1 µM in assay [1] was 20%; in assay [3] it was -3%; in [5], 15%; in [6], -5%. For the same molecule, the IC50 is 29 nM on KRas^G12C; 37 nM at KRas^G13D; 16 nM on KRas^G12R; 246 nM in assay [2]; 19 nM on KRas^G12V; 44 nM on KRas^Q61H. Further, the IC50 stood at 54 nM at KRas^G12D; 34 nM on KRas^WT; 19 nM on KRas^G12S; 1400 nM in assay [4]; 25 nM at KRas^G12A.
